pIC50: −log10 of the molar value.

A word on the pIC50: it is the IC50 on a negative log10 scale, so that one unit is a factor of ten. Read a high pIC50 as a low IC50.

In this test the target is human Cat S (Homo sapiens (Human), UniProt P25774). Briefly: Cathepsin enzyme inhibition assay (fluorogenic peptide substrate Z-Val-Val-Arg-AMC). It is filed as biochemical. To be noted: enzyme 1 nM, substrate 20 μM, pH 6.5. The procedure: Cathepsin Enzyme Inhibition Assay
Chain of human Cat S (P25774 115-331): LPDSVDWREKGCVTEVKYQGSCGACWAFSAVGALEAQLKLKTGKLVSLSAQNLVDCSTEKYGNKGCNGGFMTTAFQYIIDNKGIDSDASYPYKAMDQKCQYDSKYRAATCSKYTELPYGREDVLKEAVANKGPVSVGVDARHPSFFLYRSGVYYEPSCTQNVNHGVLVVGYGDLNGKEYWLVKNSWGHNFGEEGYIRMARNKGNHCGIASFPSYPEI
Enzyme activity is measured by observing the increase in fluorescence intensity caused by cleavage of a peptide substrate containing a fluorophore whose emission is quenched in the intact peptide.
Assay buffer: 100 mM potassium phosphate pH 6.5, EDTA-Na 5 mM, Triton X-100 0.001%, DTT 5 mM.
Enzymes (all at 1 nM): human and mouse Cathepsin S, Cat K, Cat B, Cat L.
Substrate (20 μM): Z-Val-Val-Arg-AMC, except for Cat K which uses Z-Leu-Arg-AMC (both from Bachem).
AMC=7-Amino-4-Methyl-Coumarin.
Excitation 360 nm, Emission 465 nm.
Enzyme is added to the substance dilutions in 96-well microtitre plates and the reaction is started with substrate. […] IC50 are calculated by standard methods.
Inhibition of human Cat S, mouse Cat S, human Cat K, human Cat B, human Cat L and mouse Cat L have been measured separately.
Molecule `Cc1cc(-c2ccccc2OC(F)(F)F)ccc1S(=O)(=O)[C@@H]1C[C@@H](C(=O)NC2(C#N)CC2)N(C(=O)C2(C(F)(F)F)CC2)C1` [Example 22, (2S,4R)—N-(1-cyanocyclopropyl)-4-(3-methyl-2′-(trifluoromethoxy)biphenyl-4-ylsulfonyl)-1-(1-(trifluoromethyl)cyclopropanecarbonyl)pyrrolidine-2-carboxamide] gave a pIC50 of 8.94.

`Cc1cc(C(F)(F)F)nn1-c1ccc(S(=O)(=O)[C@@H]2C[C@@H](C(=O)NC3(C#N)CC3)N(C(=O)C3(C(F)(F)F)CC3)C2)c(C(F)(F)F)c1` [Example 23, (2S,4R)-4-[4-(5-Methyl-3-trifluoromethyl-pyrazol-1-yl)-2-trifluoromethyl-benzenesulfonyl]-1-(1-trifluoromethyl-cyclopropanecarbonyl)-pyrrolidine-2-carboxylic acid (1-cyano-cyclopropyl)-amide] showed a pIC50 of 8.95.

Molecule `Cc1ncn(-c2ccc(S(=O)(=O)[C@@H]3C[C@@H](C(=O)NC4(C#N)CC4)N(C(=O)C4(C(F)(F)F)CC4)C3)c(C(F)(F)F)c2)n1` [Example 24, (2S,4R)-4-[4-(3-Methyl-[1,2,4]triazol-1-yl)-2-trifluoromethyl-benzenesulfonyl]-1-(1-trifluoromethyl-cyclopropanecarbonyl)-pyrrolidine-2-carboxylic acid (1-cyano-cyclopropyl)-amide] had a pIC50 of 9.11.

Consider `Cc1nncn1-c1ccc(S(=O)(=O)[C@@H]2C[C@@H](C(=O)NC3(C#N)CC3)N(C(=O)C3(C(F)(F)F)CC3)C2)c(C(F)(F)F)c1` [Example 25, (2S,4R)-4-[4-(3-Methyl-[1,2,4]triazol-4-yl)-2-trifluoromethyl-benzenesulfonyl]-1-(1-trifluoromethyl-cyclopropanecarbonyl)-pyrrolidine-2-carboxylic acid (1-cyano-cyclopropyl)-amide], for which the pIC50 was 8.49.

Consider `Cc1nc(C)n(-c2ccc(S(=O)(=O)[C@@H]3C[C@@H](C(=O)NC4(C#N)CC4)N(C(=O)C4(C(F)(F)F)CC4)C3)c(C(F)(F)F)c2)n1` [Example 27, (2S,4R)-4-[4-(3,5-Dimethyl-[1,2,4]triazol-1-yl)-2-trifluoromethyl-benzenesulfonyl]-1-(1-trifluoromethyl-cyclopropanecarbonyl)-pyrrolidine-2-carboxylic acid (1-cyano-cyclopropyl)-amide], for which the negative-log IC50 (pIC50) was 9.25.

The molecule `Cn1nc(C(F)(F)F)cc1-c1ccc(S(=O)(=O)[C@@H]2C[C@@H](C(=O)NC3(C#N)CC3)N(C(=O)C3(C(F)(F)F)CC3)C2)cc1` [Example 28, (2S,4R)—N-(1-cyanocyclopropyl)-4-(4-(1-methyl-3-(trifluoromethyl)-1H-pyrazol-5-yl)phenylsulfonyl)-1-(1-(trifluoromethyl)cyclopropanecarbonyl)pyrrolidine-2-carboxamide] gave a pIC50 of 8.63.

Molecule `Cc1cc(-c2ccccc2C=O)ccc1S(=O)(=O)[C@@H]1C[C@@H](C(=O)NC2(C#N)CC2)N(C(=O)C2(C(F)(F)F)CC2)C1` [Example 29, (2S,4R)—N-(1-cyanocyclopropyl)-4-(2′-formyl-3-methylbiphenyl-4-ylsulfonyl)-1-(1-(trifluoromethyl)cyclopropanecarbonyl)pyrrolidine-2-carboxamide] showed a pIC50 of 9.09.

With `Cc1ncnn1-c1ccc(S(=O)(=O)[C@@H]2C[C@@H](C(=O)NC3(C#N)CC3)N(C(=O)C3(C(F)(F)F)CC3)C2)c(C(F)(F)F)c1` [Example 31, (2S,4R)—N-(1-cyanocyclopropyl)-4-(4-(5-methyl-1H-1,2,4-triazol-1-yl)-2-(trifluoromethyl)phenylsulfonyl)-1-(1-(trifluoromethyl)cyclopropanecarbonyl) pyrrolidine-2-carboxamide], the pIC50 is 9.27.

On to `Cc1cc(-c2cc(C(F)(F)F)nn2C)ccc1S(=O)(=O)[C@@H]1C[C@@H](C(=O)NC2(C#N)CC2)N(C(=O)C2(C(F)(F)F)CC2)C1` [Example 32, (2S,4R)—N-(1-cyanocyclopropyl)-4-(2-methyl-4-(1-methyl-3-(trifluoromethyl)-1H-pyrazol-5-yl)phenylsulfonyl)-1-(1-(trifluoromethyl)cyclopropanecarbonyl) pyrrolidine-2-carboxamide], for which the pIC50 was 9.02.

In the case of `Cc1nc(C)n(-c2ccc(S(=O)(=O)[C@@H]3C[C@@H](C(=O)NC4(C#N)CC4)N(C(=O)C4(C(F)(F)F)CC4)C3)cc2)n1` [Example 33, (2S,4R)—N-(1-cyanocyclopropyl)-4-(4-(3,5-dimethyl-1H-1,2,4-triazol-1-yl)phenylsulfonyl)-1-(1-(trifluoromethyl)cyclopropanecarbonyl)pyrrolidine-2-carboxamide], the negative logarithm of the IC50 (pIC50) was 8.80. Compared with the last molecule, the pIC50 is 0.22 log units lower.

Consider `N#CC1(NC(=O)[C@@H]2C[C@@H](S(=O)(=O)c3ccc(-n4ccnn4)cc3)CN2C(=O)C2(C(F)(F)F)CC2)CC1` [Example 34, (2S,4R)-4-(4-(1H-1,2,3-triazol-1-yl)phenylsulfonyl)-N-(1-cyanocyclopropyl)-1-(1-(trifluoromethyl)cyclopropanecarbonyl)pyrrolidine-2-carboxamide], for which the pIC50 was 8.97.

Consider `N#CC1(NC(=O)[C@@H]2C[C@@H](S(=O)(=O)c3ccc(-n4ccc(C(F)(F)F)n4)cc3)CN2C(=O)C2(C(F)(F)F)CC2)CC1` [Example 35, (2S,4R)—N-(1-cyanocyclopropyl)-4-(4-(3-(trifluoromethyl)-1H-pyrazol-1-yl)phenylsulfonyl)-1-(1-(trifluoromethyl)cyclopropanecarbonyl)pyrrolidine-2-carboxamide], for which the pIC50 is 8.99.

`Cc1cc(C(F)(F)F)nn1-c1ccc(S(=O)(=O)[C@@H]2C[C@@H](C(=O)NC3(C#N)CC3)N(C(=O)C3(C(F)(F)F)CC3)C2)cc1` [Example 36, (2S,4R)—N-(1-cyanocyclopropyl)-4-(4-(5-methyl-3-(trifluoromethyl)-1H-pyrazol-1-yl)phenylsulfonyl)-1-(1-(trifluoromethyl)cyclopropanecarbonyl)pyrrolidine-2-carboxamide] gave a pIC50 of 8.59.

`N#CC1(NC(=O)[C@@H]2C[C@@H](S(=O)(=O)c3ccc(-c4ccccc4C=O)cc3)CN2C(=O)C2(C(F)(F)F)CC2)CC1` [Example 37, (2S,4R)—N-(1-cyanocyclopropyl)-4-(2′-formylbiphenyl-4-ylsulfonyl)-1-(1-(trifluoromethyl)cyclopropanecarbonyl)pyrrolidine-2-carboxamide] had a negative logarithm of the IC50 (pIC50) of 8.72.

Molecule `CCOc1ccccc1-c1ccc(S(=O)(=O)[C@@H]2C[C@@H](C(=O)NC3(C#N)CC3)N(C(=O)C3(C(F)(F)F)CC3)C2)cc1` [Example 38, (2S,4R)—N-(1-cyanocyclopropyl)-4-(2′-ethoxybiphenyl-4-ylsulfonyl)-1-(1-(trifluoromethyl)cyclopropanecarbonyl)pyrrolidine-2-carboxamide] gave a pIC50 of 8.49.

`N#CC1(NC(=O)[C@@H]2C[C@@H](S(=O)(=O)c3ccc(-c4cnc(N)nc4)cc3)CN2C(=O)C2(C(F)(F)F)CC2)CC1` [Example 39, (2S,4R)-4-(4-(2-aminopyrimidin-5-yl)phenylsulfonyl)-N-(1-cyanocyclopropyl)-1-(1-(trifluoromethyl)cyclopropanecarbonyl)pyrrolidine-2-carboxamide] had a pIC50 of 9.32.

`CCOc1ccccc1-c1ccc(S(=O)(=O)[C@@H]2C[C@@H](C(=O)NC3(C#N)CC3)N(C(=O)C3(C(F)(F)F)CC3)C2)c(C)c1` [Example 40, (2S,4R)—N-(1-cyanocyclopropyl)-4-(2′-ethoxy-3-methylbiphenyl-4-ylsulfonyl)-1-(1-(trifluoromethyl)cyclopropanecarbonyl)pyrrolidine-2-carboxamide] gave a pIC50 of 8.92. Compared with the last molecule, the pIC50 is 0.40 log units lower.

Molecule `Cc1cc(-c2ccccc2C#N)ccc1S(=O)(=O)[C@@H]1C[C@@H](C(=O)NC2(C#N)CC2)N(C(=O)C2(C(F)(F)F)CC2)C1` [Example 41, (2S,4R)-4-(2′-cyano-3-methylbiphenyl-4-ylsulfonyl)-N-(1-cyanocyclopropyl)-1-(1-(trifluoromethyl)cyclopropanecarbonyl)pyrrolidine-2-carboxamide] had a pIC50 of 9.07.

For the molecule `CCOc1cc(F)c(F)cc1-c1ccc(S(=O)(=O)[C@@H]2C[C@@H](C(=O)NC3(C#N)CC3)N(C(=O)C3(C(F)(F)F)CC3)C2)c(C)c1` [Example 42, (2S,4R)—N-(1-cyanocyclopropyl)-4-(2′-ethoxy-4′,5′-difluoro-3-methylbiphenyl-4-ylsulfonyl)-1-(1-(trifluoromethyl)cyclopropanecarbonyl)pyrrolidine-2-carboxamide], the pIC50 is 8.84.

Take `N#CC1(NC(=O)[C@@H]2C[C@@H](S(=O)(=O)c3ccc(-c4ccccc4CO)cc3)CN2C(=O)C2(C(F)(F)F)CC2)CC1` [Example 43, (2S,4R)—N-(1-cyanocyclopropyl)-4-(2′-(hydroxymethyl)biphenyl-4-ylsulfonyl)-1-(1-(trifluoromethyl)cyclopropanecarbonyl)pyrrolidine-2-carboxamide]: the pIC50 was 8.45.

For `Cc1cc(-c2cnc(N)nc2)ccc1S(=O)(=O)[C@@H]1C[C@@H](C(=O)NC2(C#N)CC2)N(C(=O)C2(C(F)(F)F)CC2)C1` [Example 44, (2S,4R)-4-(4-(2-aminopyrimidin-5-yl)-2-methylphenylsulfonyl)-N-(1-cyanocyclopropyl)-1-(1-(trifluoromethyl)cyclopropanecarbonyl)pyrrolidine-2-carboxamide], the pIC50 is 9.29.

The values above are taken from US10689339B2, “Pyrrolidine derivatives” (Hoffmann-La Roche Inc., priority 2016, dated 2020).
